Laboratory results reported in patent publication US8242275B2, “Bicyclic pyrazole compounds as antibacterial agents” (Janssen Pharmaceutica NV, priority 2005, dated 2012).
≈ marks a conversion by molar mass, not a printed value.

Tests used:
CipR MRSA OC3946 = experiment: Resistant strains assay (broth microdilution MIC); format: cell-based; conditions: Staphylococcus aureus; CipR MRSA OC3946; read-out: MIC, Column E
Description: (§1) Compounds of the present invention were tested for activity against susceptible and resistant bacterial strains in vitro, and activity was compared to known anti-bacterial agents. Testing protocols followed NCCLS methodology for broth microdilution assays. MIC values in μg/mL are presented in Table 3 for the following strains: Column A: MSSA ATCC13709 (Smith); Column B: MSSA ATCC 29213; Column C: MRSA OC3726 (COL); Column D: MRSA OC2878.
MIC values in μg/mL are presented in Table 4 for the following strains: Column E: CipR MRSA OC3946; Column F: CipR MRSA OC4159; Column G: CipR MRSA OC4222; Column H: CipR MRSA OC5273.

MSSA ATCC13709 (Smith) = experiment: Resistant strains assay (broth microdilution MIC); format: cell-based; conditions: Staphylococcus aureus
Description: as §1

MSSA ATCC 29213 = experiment: Resistant strains assay (broth microdilution MIC); format: cell-based; conditions: Staphylococcus aureus, read-out: MIC, Column B
Description: as §1

MRSA OC3726 (COL) = experiment: Resistant strains assay (broth microdilution MIC); format: cell-based; conditions: Staphylococcus aureus; MRSA OC3726 (COL); read-out: MIC, Column C
Description: (§2) Testing protocols followed NCCLS methodology for broth microdilution assays.

CipR MRSA OC4222 = experiment: Resistant strains assay (broth microdilution MIC); format: cell-based; conditions: Staphylococcus aureus; CipR MRSA OC4222; read-out: MIC, Column G
Description: as §2

MRSA OC2878 = experiment: Resistant strains assay (broth microdilution MIC); format: cell-based; conditions: Staphylococcus aureus; MRSA OC2878; read-out: MIC, Column D
Description: as §2

CipR MRSA OC4159 = experiment: Resistant strains assay (broth microdilution MIC); format: cell-based; conditions: Staphylococcus aureus, read-out: MIC, Column F
Description: as §2

CipR MRSA OC5273 = experiment: Resistant strains assay (broth microdilution MIC); format: cell-based; conditions: Staphylococcus aureus, read-out: MIC, Column H
Description: as §2

S. pneumoniae ATCC49619 = experiment: In vitro antibacterial activity (MIC assay), broth microdilution; format: cell-based; conditions: Streptococcus pneumoniae, ATCC49619; read-out: S. pneumoniae ATCC49619 MIC
Procedure, shortened: (§3)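 Bacteria at roughly 5×10^5 CFU/mL final were grown 16–24 h at 35° C in wells holding 2-fold serial dilutions (11 points) of compound prepared in 100% DMSO, following NCCLS M7-A5. MIC, in μg/mL, is the concentration that stops visible growth relative to untreated wells.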

[1] = system: E. coli KL-16 (GSC strain 4245); experiment: as above; format: cell-based; conditions: Escherichia coli
Procedure, shortened: as §3

S. aureus ATCC13709 = experiment: as above; format: cell-based; conditions: Staphylococcus aureus, ATCC13709; read-out: S. aureus ATCC13709 MIC
Procedure, shortened: as §3

E. coli DNA gyrase = target: T1, E. coli DNA gyrase (Escherichia coli, UniProt P0AES4+P0AES6); experiment: DNA gyrase inhibition assay (supercoiling); format: biochemical; conditions: E. coli DNA gyrase supercoiling, visual inspection of gels; read-out: DNA Gyrase IC50 (converted)
T1 construct: purchased John Innes Enterprises Ltd. (John Innes Centre, UK)
Procedure, shortened: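 Agarose-gel (1.0%, ethidium-stained) readout of supercoiled versus relaxed pBR322 after 30 min at 37° C. Each reaction held 250 ng DNA, 0.2 unit enzyme, 1 mM ATP, 4 mM MgCl2, 24 mM KCl in 35 mM Tris-HCl pH 7.5, and compound at 0.5% DMSO final.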

E. coli topoisomerase IV = target: T2, E. coli topoisomerase IV (Escherichia coli, UniProt P0AFI2+P20083); experiment: Topoisomerase IV inhibition assay (relaxation); format: biochemical; conditions: E. coli topoisomerase IV relaxation, visual inspection of gels; read-out: Topoisomerase IV IC50 (converted)
T2 construct: purchased John Innes Enterprises Ltd. (John Innes Centre, UK)
Description: Inhibition of the relaxation activity of E. coli topoisomerase IV was determined using enzyme, buffers and substrates received from John Innes Enterprises Ltd. (John Innes Centre, UK). The reactions were performed according to the manufacturer's directions, with the following modifications.
DNA relaxation reactions were carried out in a total reaction volume of 20 μL, containing 300 ng of supercoiled pBR322, 40 mM HEPES-KOH (pH 7.6), 100 mM potassium glutamate, 10 mM Mg(OAc)2, 10 mM DTT, 4 μg/mL tRNA, 2 mM ATP, and 50 μg/mL BSA. Compounds, diluted in 10% DMSO, were added to the reaction mixture to reach a final concentration of 0.5% DMSO. Enzyme was diluted to 0.45 unit/μL in a solution of 40 mM HEPES-KOH (pH 7.6), 150 mM potassium glutamate, 1 mM DTT, 1 mM EDTA, and 40% glycerol. Diluted enzyme (0.9 unit) was added to each reaction.
The reactions were incubated at 37° C. for 45 min. The reactions were then cooled to 0° C. followed by addition of 3 μL of 40% glycerol, 100 mM Tris-HCl (pH 7.5), 50 mM EDTA, 0.5% SDS and 0.1% bromophenol blue. Samples were separated on 1.0% agarose gels. Gels were stained with Ethidium bromide and photographed with a Stratagene Eagle Eye II.

T2 sequence (P0AFI2 whole entry): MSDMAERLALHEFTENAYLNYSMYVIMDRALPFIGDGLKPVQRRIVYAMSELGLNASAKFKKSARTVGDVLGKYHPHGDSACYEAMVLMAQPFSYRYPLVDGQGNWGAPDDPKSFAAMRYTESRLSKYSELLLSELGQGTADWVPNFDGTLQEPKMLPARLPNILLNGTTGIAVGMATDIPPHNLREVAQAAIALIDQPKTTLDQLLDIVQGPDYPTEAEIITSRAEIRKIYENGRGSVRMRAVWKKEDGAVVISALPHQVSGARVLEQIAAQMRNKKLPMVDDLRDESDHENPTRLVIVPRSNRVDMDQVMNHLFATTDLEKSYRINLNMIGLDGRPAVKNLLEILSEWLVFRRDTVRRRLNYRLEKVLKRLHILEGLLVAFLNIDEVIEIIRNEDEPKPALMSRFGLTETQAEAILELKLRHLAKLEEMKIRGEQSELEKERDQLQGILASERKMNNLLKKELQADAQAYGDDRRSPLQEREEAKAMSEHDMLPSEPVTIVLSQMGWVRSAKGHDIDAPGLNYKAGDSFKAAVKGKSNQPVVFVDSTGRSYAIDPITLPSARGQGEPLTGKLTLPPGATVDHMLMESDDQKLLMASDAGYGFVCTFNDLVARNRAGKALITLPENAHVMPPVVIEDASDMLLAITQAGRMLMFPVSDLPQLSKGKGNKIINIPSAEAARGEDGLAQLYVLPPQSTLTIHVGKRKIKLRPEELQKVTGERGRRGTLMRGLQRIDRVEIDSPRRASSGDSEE
T2 sequence (P20083 whole entry): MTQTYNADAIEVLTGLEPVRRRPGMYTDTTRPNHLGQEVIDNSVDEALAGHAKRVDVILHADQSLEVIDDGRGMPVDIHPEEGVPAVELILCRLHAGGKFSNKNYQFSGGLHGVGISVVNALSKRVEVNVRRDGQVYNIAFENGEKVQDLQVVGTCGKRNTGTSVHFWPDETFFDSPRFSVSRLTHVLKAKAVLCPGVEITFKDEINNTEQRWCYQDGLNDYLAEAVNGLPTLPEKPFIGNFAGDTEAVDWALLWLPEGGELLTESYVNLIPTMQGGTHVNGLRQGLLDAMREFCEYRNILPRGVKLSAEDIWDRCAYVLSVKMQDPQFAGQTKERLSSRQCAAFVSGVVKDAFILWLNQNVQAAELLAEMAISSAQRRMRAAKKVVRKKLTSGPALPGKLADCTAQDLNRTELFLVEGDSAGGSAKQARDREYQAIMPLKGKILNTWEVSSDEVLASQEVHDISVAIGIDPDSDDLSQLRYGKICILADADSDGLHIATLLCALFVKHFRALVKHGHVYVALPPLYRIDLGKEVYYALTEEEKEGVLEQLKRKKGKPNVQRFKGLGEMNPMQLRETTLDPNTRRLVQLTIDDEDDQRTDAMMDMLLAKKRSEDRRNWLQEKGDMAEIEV
T1 sequence (P0AES4 whole entry, one chain of several): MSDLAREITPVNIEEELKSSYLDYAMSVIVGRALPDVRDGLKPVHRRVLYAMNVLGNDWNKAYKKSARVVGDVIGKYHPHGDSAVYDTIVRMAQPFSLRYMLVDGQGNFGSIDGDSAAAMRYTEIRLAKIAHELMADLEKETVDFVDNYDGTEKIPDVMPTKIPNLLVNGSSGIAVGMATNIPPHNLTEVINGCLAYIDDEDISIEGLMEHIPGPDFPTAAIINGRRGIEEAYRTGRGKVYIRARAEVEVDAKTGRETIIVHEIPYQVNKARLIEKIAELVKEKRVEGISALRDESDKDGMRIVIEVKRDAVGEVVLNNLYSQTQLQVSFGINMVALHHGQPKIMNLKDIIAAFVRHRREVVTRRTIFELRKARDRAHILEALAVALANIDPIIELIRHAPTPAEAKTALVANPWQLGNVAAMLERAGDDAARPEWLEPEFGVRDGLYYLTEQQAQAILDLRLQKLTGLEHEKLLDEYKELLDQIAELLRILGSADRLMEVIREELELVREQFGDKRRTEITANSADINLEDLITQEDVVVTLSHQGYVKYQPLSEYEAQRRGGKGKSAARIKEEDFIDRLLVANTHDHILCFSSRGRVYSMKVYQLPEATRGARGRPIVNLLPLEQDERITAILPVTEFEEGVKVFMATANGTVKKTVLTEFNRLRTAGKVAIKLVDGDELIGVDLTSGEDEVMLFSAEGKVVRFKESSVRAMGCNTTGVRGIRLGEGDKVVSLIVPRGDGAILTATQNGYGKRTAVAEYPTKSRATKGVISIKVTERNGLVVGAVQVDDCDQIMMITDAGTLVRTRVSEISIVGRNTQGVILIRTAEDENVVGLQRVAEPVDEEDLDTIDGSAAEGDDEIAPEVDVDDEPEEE

Compound | MIC (CipR MRSA OC3946) [mg/L] | MIC (MSSA ATCC13709 (Smith)) [mg/L] | MIC (MSSA ATCC 29213) [mg/L] | MIC (MRSA OC3726 (COL)) [mg/L] | MIC (CipR MRSA OC4222) [mg/L] | MIC (MRSA OC2878) [mg/L] | MIC (CipR MRSA OC4159) [mg/L] | MIC (CipR MRSA OC5273) [mg/L] | MIC (S. pneumoniae ATCC49619) [mg/L] | MIC [1] [mg/L] | MIC (S. aureus ATCC13709) [mg/L] | IC50 (E. coli DNA gyrase) [µM] | IC50 (E. coli topoisomerase IV) [µM]
O=C(O)c1cn(C2CC2)c2cc(N3CCNCC3)c(F)cc2c1=O [Ciprofloxacin, reference compound] | 16 (≈ 48.3 µM) | 0.25 to 0.5 (≈ 0.754 to 1.51 µM) | 0.25 to 0.5 (≈ 0.754 to 1.51 µM) |  |  |  |  |  |  |  |  |  | 
CCn1cc(C(=O)O)c(=O)c2cc(F)c(N3CCNCC3)cc21 [Norfloxacin, reference compound] | 128 (≈ 401 µM) | 1 (≈ 3.13 µM) | 2 (≈ 6.26 µM) | 2 (≈ 6.26 µM) | > 128 | 1 (≈ 3.13 µM) | > 128 | > 128 |  |  |  |  | 
COc1ccc2nccc(-n3cc4c(n3)CCC(NC(=O)c3c(F)cc5c(c3F)NC(=O)CS5)C4)c2c1 (stereo not shown) [Example 108, 5,7-Difluoro-3-oxo-3,4-dihydro-2H-benzo[1,4]thiazine-6-carboxylic acid [2-(6-methoxy-quinolin-4-yl)-4,5,6,7-tetrahydro-2H-indazol-5-yl]-amide] |  |  |  |  | 0.06 (≈ 0.115 µM) |  |  |  | 1 (≈ 1.92 µM) | 8 (≈ 15.3 µM) | 0.125 (≈ 0.24 µM) | 1.92 | 
COc1ccc2nccc(-n3cc4c(n3)CCC(NCC(=O)Nc3cc(F)cc(F)c3)C4)c2n1 (stereo not shown) [Example 58, N-(3,5-Difluoro-phenyl)-2-[2-(6-methoxy-[1,5]naphthyridin-4-yl)-4,5,6,7-tetrahydro-2H-indazol-5-ylamino]-acetamide] |  |  |  |  |  |  |  |  | 4 (≈ 8.61 µM) | 16 (≈ 34.4 µM) | 0.25 (≈ 0.538 µM) | 2.15 | 0.0344
COc1ccc2nccc(-n3cc4c(n3)CCC(NC(=O)c3cc5c(cc3C(F)(F)F)SCC(=O)N5)C4)c2c1 (stereo not shown) [Example 115, 3-Oxo-7-trifluoromethyl-3,4-dihydro-2H-benzo[1,4]thiazine-6-carboxylic acid [2-(6-methoxy-quinolin-4-yl)-4,5,6,7-tetrahydro-2H-indazol-5-yl]-amide] |  |  |  |  |  |  |  |  | 8 (≈ 14.5 µM) | 8 (≈ 14.5 µM) | 0.125 (≈ 0.226 µM) | 1.81 | 0.452
COc1ccc2nccc(-n3cc4c(n3)CCC(NC(=O)c3cnc5ccccc5n3)C4)c2n1 (stereo not shown) [Example 70, Quinoxaline-2-carboxylic acid [2-(6-methoxy-[1,5]naphthyridin-4-yl)-4,5,6,7-tetrahydro-2H-indazol-5-yl]-amide] |  |  |  |  |  |  |  |  | 32 (≈ 70.9 µM) | > 128 | 2 (≈ 4.43 µM) | > 70.9 | > 2.21
COc1ccc2nccc(-n3cc4c(n3)CCC(NCc3ccc5c(c3)NCCS5)C4)c2n1 (stereo not shown) [Example 36, (3,4-Dihydro-2H-benzo[1,4]thiazin-6-ylmethyl)-[2-(6-methoxy-[1,5]naphthyridin-4-yl)-4,5,6,7-tetrahydro-2H-indazol-5-yl]-amine] |  |  |  |  |  |  |  |  | 0.25 (≈ 0.545 µM) | 8 (≈ 17.4 µM) | < 0.125 | 1.09 | 0.0654
COc1ccc2nccc(-n3cc4c(n3)CCC(NC(=O)c3ccc5c(c3)NC(=O)CO5)C4)c2n1 (stereo not shown) [Example 117, 3-Oxo-3,4-dihydro-2H-benzo[1,4]oxazine-6-carboxylic acid [2-(6-methoxy-[1,5]naphthyridin-4-yl)-4,5,6,7-tetrahydro-2H-indazol-5-yl]-amide] |  |  |  |  |  |  |  |  | 8 (≈ 17 µM) | 4 (≈ 8.5 µM) | 0.125 (≈ 0.266 µM) | 2.13 | 0.531
COc1ccc2nccc(-n3cc4c(n3)CCC(NC(=O)c3c(F)cc5c(c3F)NC(=O)CS5)C4)c2n1 (stereo not shown) [Example 109, 5,7-Difluoro-3-oxo-3,4-dihydro-2H-benzo[1,4]thiazine-6-carboxylic acid [2-(6-methoxy-[1,5]naphthyridin-4-yl)-4,5,6,7-tetrahydro-2H-indazol-5-yl]-amide] |  |  |  |  | 0.03 (≈ 0.0574 µM) |  |  |  | 4 (≈ 7.65 µM) | > 128 | 0.125 (≈ 0.239 µM) | 1.91 | 
C[C@@H]1CN(c2c(F)c(N)c3c(=O)c(C(=O)O)cn(C4CC4)c3c2F)C[C@H](C)N1 [Sparfloxacin, reference compound] | 4 (≈ 10.2 µM) | 0.062 (≈ 0.158 µM) | 0.062 (≈ 0.158 µM) | 0.125 (≈ 0.319 µM) | 8 (≈ 20.4 µM) | 0.062 (≈ 0.158 µM) | 16 (≈ 40.8 µM) | 16 (≈ 40.8 µM) |  |  |  |  | 
COc1ccc2nccc(-n3cc4c(n3)CCC(NC(=O)c3cc5c(cc3C)SCC(=O)N5)C4)c2c1 (stereo not shown) [Example 131, 7-Methyl-3-oxo-3,4-dihydro-2H-benzo[1,4]thiazine-6-carboxylic acid [2-(6-methoxy-quinolin-4-yl)-4,5,6,7-tetrahydro-2H-indazol-5-yl]-amide] |  |  |  |  | 0.5 (≈ 1 µM) |  |  |  | 16 (≈ 32 µM) | 8 (≈ 16 µM) | 0.5 (≈ 1 µM) |  | 
COc1ccc2nccc(-n3cc4c(n3)CCC(NC/C=C/c3ccccc3[N+](=O)[O-])C4)c2n1 (stereo not shown) [Example 89, [2-(6-Methoxy-[1,5]naphthyridin-4-yl)-4,5,6,7-tetrahydro-2H-indazol-5-yl]-[3-(2-nitro-phenyl)-allyl]-amine] |  |  |  |  |  |  |  |  | 2 (≈ 4.38 µM) | 16 (≈ 35 µM) | 2 (≈ 4.38 µM) | 0.274 | 0.0329
COc1ccc2nccc(-n3cc4c(n3)CCC(NCC(=O)Nc3ccc5c(c3)NC(=O)CS5)C4)c2n1 (stereo not shown) [Example 83, 2-[2-(6-Methoxy-[1,5]naphthyridin-4-yl)-4,5,6,7-tetrahydro-2H-indazol-5-ylamino]-N-(3-oxo-3,4-dihydro-2H-benzo[1,4]thiazin-6-yl)-acetamide] |  |  |  |  |  |  |  |  | 32 (≈ 62.1 µM) | > 128 | 2 (≈ 3.88 µM) | < 0.485 | 0.485
COc1ccc2nccc(-n3cc4c(n3)CCC(NCc3ccc5c(n3)NC(=O)CO5)C4)c2n1 (stereo not shown) [Example 44, 6-{[2-(6-Methoxy-[1,5]naphthyridin-4-yl)-4,5,6,7-tetrahydro-2H-indazol-5-ylamino]-methyl}-4H-pyrido[3,2-b][1,4]oxazin-3-one] |  |  |  |  |  |  |  |  | 2 (≈ 4.37 µM) | 2 (≈ 4.37 µM) | 0.5 (≈ 1.09 µM) | < 0.273 | 0.035
COc1ccc2nccc(-n3cc4c(n3)CCC(NCc3cc5c(cc3Cl)OCCO5)C4)c2c1 (stereo not shown) [Example 103, (7-Chloro-2,3-dihydro-benzo[1,4]dioxin-6-ylmethyl)-[2-(6-methoxy-quinolin-4-yl)-4,5,6,7-tetrahydro-2H-indazol-5-yl]-amine] |  |  |  |  |  |  |  |  | 4 (≈ 8.39 µM) | 32 (≈ 67.1 µM) | 0.5 (≈ 1.05 µM) | 4.19 | 0.524
COc1ccc2nccc(-n3cc4c(n3)CCC(NCc3ccc5c(c3)OCO5)C4)c2n1 (stereo not shown) [Example 37, Benzo[1,3]dioxol-5-ylmethyl-[2-(6-methoxy-[1,5]naphthyridin-4-yl)-4,5,6,7-tetrahydro-2H-indazol-5-yl]-amine] |  |  |  |  |  |  |  |  | 2 (≈ 4.66 µM) | 32 (≈ 74.5 µM) | 0.5 (≈ 1.16 µM) | 0.582 | 0.582
COc1ccc2nccc(-n3cc4c(n3)CCC(NCc3cc5c(cc3F)SCC(=O)N5)C4)c2c1 (stereo not shown) [Example 53, 7-Fluoro-6-{[2-(6-methoxy-quinolin-4-yl)-4,5,6,7-tetrahydro-2H-indazol-5-ylamino]-methyl}-4H-benzo[1,4]thiazin-3-one] |  |  |  |  |  |  |  |  | 2 (≈ 4.09 µM) | 4 (≈ 8.17 µM) | 0.25 (≈ 0.511 µM) | 1.02 | 0.0327
